Measured values as given in patent US7829325B2, “Drug testing with bio-artificial organ slices including for example those derived from liver” (HepaHope, Inc., priority 2003, dated 2010).

What was measured:
liver slices [1] = conditions: 20 mg loading dose; all trials; in presence of HL 100; FIG. 5
liver slices [2] = tested on: liver slices
[3] = 2 mg lidocaine dose, continuous and intermittent (1:3) perfusion, in presence of HL 100, FIG. 3A

| SMILES | time of maximal ammonia clearance (liver slices [1]) | lidocaine levels within 30 minutes (liver slices [2]; 2 mg dose, 6 hour trials and continuous perfusion 24 hour trial, exposed to HL 100, FIG. 3B) | level of lidocaine at 120 minutes (liver slices [2]; [3]) | level of lidocaine at approximately 30 minutes after lidocaine loading (liver slices [2]; [3]) |
| --- | --- | --- | --- | --- |
| N [ammonia] | approximately 30 minutes |  |  |  |
| CCN(CC)CC(=O)Nc1c(C)cccc1C [lidocaine] |  | approximately 0.8 μg | approximately 0.5 :g | approximately 0.9 μg |
